Reference: ChEMBL document CHEMBL1268811, “A retro-inverso TAT-like peptide designed to deliver cysteamine to cells” (Bioorg Med Chem Lett, 2010)
*1 amine or outer side, *2 acyl side, *3 side chain or, on linkers, in order; H or OH if unused. Where a SMILES comes first, the peptide text is derived from it. The star is where a group is joined. 5TAMRA = CN(C)c1ccc2c(c1)Oc1cc(N(C)C)ccc1C21OC(=O)c2cc(C(=O)*)ccc21; Cysteamine = C(CS[*:2])N[*:1]

Test: Drug uptake in lysosomes of human HeLa cells transfected with Cerulean-Lamp-1 plasmid at 1 uM after 1 hr by fluorescence microscopy; call rule not given here
Type: ADME, cell-based, Lysosome

With `CN(C)c1ccc2c(c1)Oc1cc(N(C)C)ccc1C21OC(=O)c2cc(C(=O)N[C@@H](CCCNC(=N)N)C(=O)N[C@@H](CCCNC(=N)N)C(=O)N[C@@H](CCCNC(=N)N)C(=O)N[C@@H](CCC(N)=O)C(=O)N[C@@H](CCCNC(=N)N)C(=O)N[C@@H](CCCNC(=N)N)C(=O)N[C@@H](CS)C(=O)N[C@@H](CS)C(=O)N[C@@H](CCCNC(=N)N)C(=O)NCC(=O)N[C@@H](Cc3ccc(O)cc3)C(=O)O)ccc21` (5TAMRA-RRRQRRCCRGY-OH) the Drug uptake was “Not Active”.

In the case of `CN(C)c1ccc2c(c1)Oc1cc(N(C)C)ccc1C21OC(=O)c2cc(C(=O)N[C@@H](CCCNC(=N)N)C(=O)N[C@@H](CCCNC(=N)N)C(=O)N[C@@H](CCCNC(=N)N)C(=O)N[C@@H](CCC(N)=O)C(=O)N[C@@H](CCCNC(=N)N)C(=O)N[C@@H](CCCNC(=N)N)C(=O)N[C@@H](CSSCCN)C(=O)N[C@@H](CS)C(=O)N[C@@H](CCCNC(=N)N)C(=O)NCC(=O)N[C@@H](Cc3ccc(O)cc3)C(=O)O)ccc21` (5TAMRA-RRRQRRC(Cysteamine)CRGY-OH), the Drug uptake is reported as “Not Active”.

In the case of `CN(C)c1ccc2c(c1)Oc1cc(N(C)C)ccc1C21OC(=O)c2cc(C(=O)N[C@@H](CCCNC(=N)N)C(=O)N[C@@H](CCCNC(=N)N)C(=O)N[C@@H](CCCNC(=N)N)C(=O)N[C@@H](CCC(N)=O)C(=O)N[C@@H](CCCNC(=N)N)C(=O)N[C@@H](CCCNC(=N)N)C(=O)N[C@@H](CS)C(=O)N[C@@H](CSSCCN)C(=O)N[C@@H](CCCNC(=N)N)C(=O)NCC(=O)N[C@@H](Cc3ccc(O)cc3)C(=O)O)ccc21` (5TAMRA-RRRQRRCC(Cysteamine)RGY-OH), the Drug uptake is reported as “Not Active”.

For `CN(C)c1ccc2c(c1)Oc1cc(N(C)C)ccc1C21OC(=O)c2cc(C(=O)N[C@@H](CCCNC(=N)N)C(=O)N[C@@H](CCCNC(=N)N)C(=O)N[C@@H](CCCNC(=N)N)C(=O)N[C@@H](CCC(N)=O)C(=O)N[C@@H](CCCNC(=N)N)C(=O)N[C@@H](CCCNC(=N)N)C(=O)N[C@@H](CSSCCN)C(=O)N[C@@H](CSSCCN)C(=O)N[C@@H](CCCNC(=N)N)C(=O)NCC(=O)N[C@@H](Cc3ccc(O)cc3)C(=O)O)ccc21` (5TAMRA-RRRQRRC(Cysteamine)C(Cysteamine)RGY-OH), the Drug uptake was “Active”.
